Measured values from patent US10814019B2, “MRI signal suppression agents, compositions, and methods” (University of Washington, priority 2014, dated 2020).

What was measured:
[1] = mDixon signal intensity of whole venous blood samples containing Ablavar; type: physicochemical
Protocol: Six in vitro whole venous blood samples each contained a different concentration (0, 2, 4, 6, 8, and 12 mM) of gadofosveset trisodium (Ablavar). For long echo time pairs (e.g., 11.5 ms/12.7 ms), the signal intensity decreased rapidly with Ablavar concentration greater than about 4 mM.

[2] = in vivo; cited from earlier work

- signal intensity relative to pure blood ([1]; 12 mM Ablavar, echo times as short as 6.9 ms/8.1 ms): below that of pure blood
- Ablavar concentration above which signal intensity decreased rapidly ([1]; long echo time pairs (e.g., 11.5 ms/12.7 ms)): greater than 4 mM
Compound: O=C([O-])CN(CCN(CC(=O)[O-])CC(COP(=O)([O-])OC1CCC(c2ccccc2)(c2ccccc2)CC1)N(CC(=O)[O-])CC(=O)[O-])CC(=O)[O-].[Gd+3].[Na+].[Na+].[Na+] (stereo not drawn) [Ablavar, gadofosveset trisodium]
- half-life [2]: about 30 minutes
